# From patent US10584128B2, “Bicyclic dihydropyrimidine-carboxamide derivatives as Rho-Kinase inhibitors” (CHIESI FARMACEUTICI S.p.A., priority 2016, dated 2020)
# pKi: −log10 of the molar value.
# Columns and labels:
# Rho kinase 1 = Rho kinase 1 (Homo sapiens, UniProt Q13464); test: In vitro Rho kinase inhibitory activity assay (ADP-Glo kit, Myelin Basic Protein substrate); type: biochemical; conditions: 10 μM ATP, 25° C., read-out: ROCK1 inhibitory activity (Ki, range of activity)
# Summary of the method: (§1)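 ADP-Glo luminescence assay at 25 °C in 40 mM Tris pH 7.5, 20 mM MgCl2, 0.1 mg/ml BSA, 50 μM DTT, with 2.5 μM myelin basic protein, 10 μM ATP and 1% DMSO. Compound and ROCK1 or ROCK2 were preincubated 30 min, then reacted 1 h. IC50 came from a sigmoidal fit; Ki via Cheng-Prusoff.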
# Rho kinase 2 = Rho kinase 2 (Homo sapiens, UniProt O75116); test: as above; type: biochemical; conditions: 10 μM ATP, 25° C., read-out: ROCK2 inhibitory activity (Ki, range of activity)
# Summary of the method: as §1
# Rho kinase 2, sequence (O75116 whole entry): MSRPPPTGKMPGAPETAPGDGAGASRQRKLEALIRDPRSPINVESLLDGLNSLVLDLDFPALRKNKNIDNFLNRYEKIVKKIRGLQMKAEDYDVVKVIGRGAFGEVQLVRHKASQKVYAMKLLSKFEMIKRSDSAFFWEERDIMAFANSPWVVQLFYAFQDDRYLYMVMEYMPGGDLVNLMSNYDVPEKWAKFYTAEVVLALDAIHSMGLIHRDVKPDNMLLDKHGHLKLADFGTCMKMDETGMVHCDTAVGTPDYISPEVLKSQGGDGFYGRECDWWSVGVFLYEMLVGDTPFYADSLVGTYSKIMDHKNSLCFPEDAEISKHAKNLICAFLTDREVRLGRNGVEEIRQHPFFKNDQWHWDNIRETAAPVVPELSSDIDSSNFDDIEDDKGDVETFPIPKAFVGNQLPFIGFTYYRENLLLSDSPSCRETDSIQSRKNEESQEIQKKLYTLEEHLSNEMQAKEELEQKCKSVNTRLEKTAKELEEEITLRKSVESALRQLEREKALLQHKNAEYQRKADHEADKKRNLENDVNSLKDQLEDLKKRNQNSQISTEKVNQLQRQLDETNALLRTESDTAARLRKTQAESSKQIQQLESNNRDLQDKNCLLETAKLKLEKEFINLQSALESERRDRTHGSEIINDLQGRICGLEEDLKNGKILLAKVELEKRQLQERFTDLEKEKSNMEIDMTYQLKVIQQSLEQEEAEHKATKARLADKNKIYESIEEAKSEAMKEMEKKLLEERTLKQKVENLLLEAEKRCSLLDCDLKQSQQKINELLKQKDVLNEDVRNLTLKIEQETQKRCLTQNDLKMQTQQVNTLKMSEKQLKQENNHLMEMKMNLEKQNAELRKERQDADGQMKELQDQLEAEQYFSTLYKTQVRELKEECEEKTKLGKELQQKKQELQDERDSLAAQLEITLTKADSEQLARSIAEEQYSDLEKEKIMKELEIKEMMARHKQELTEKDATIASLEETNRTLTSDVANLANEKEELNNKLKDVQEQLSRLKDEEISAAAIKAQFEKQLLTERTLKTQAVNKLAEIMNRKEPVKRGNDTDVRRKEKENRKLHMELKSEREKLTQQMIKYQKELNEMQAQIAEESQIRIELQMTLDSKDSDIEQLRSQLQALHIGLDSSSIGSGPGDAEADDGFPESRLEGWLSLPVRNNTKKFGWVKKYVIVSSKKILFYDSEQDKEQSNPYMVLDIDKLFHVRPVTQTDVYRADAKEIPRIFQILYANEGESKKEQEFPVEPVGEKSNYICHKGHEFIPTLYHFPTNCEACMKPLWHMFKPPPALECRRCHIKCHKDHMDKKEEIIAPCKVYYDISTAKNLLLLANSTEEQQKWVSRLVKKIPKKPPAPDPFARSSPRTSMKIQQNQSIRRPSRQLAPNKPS
# Rho kinase 1, sequence (Q13464 whole entry): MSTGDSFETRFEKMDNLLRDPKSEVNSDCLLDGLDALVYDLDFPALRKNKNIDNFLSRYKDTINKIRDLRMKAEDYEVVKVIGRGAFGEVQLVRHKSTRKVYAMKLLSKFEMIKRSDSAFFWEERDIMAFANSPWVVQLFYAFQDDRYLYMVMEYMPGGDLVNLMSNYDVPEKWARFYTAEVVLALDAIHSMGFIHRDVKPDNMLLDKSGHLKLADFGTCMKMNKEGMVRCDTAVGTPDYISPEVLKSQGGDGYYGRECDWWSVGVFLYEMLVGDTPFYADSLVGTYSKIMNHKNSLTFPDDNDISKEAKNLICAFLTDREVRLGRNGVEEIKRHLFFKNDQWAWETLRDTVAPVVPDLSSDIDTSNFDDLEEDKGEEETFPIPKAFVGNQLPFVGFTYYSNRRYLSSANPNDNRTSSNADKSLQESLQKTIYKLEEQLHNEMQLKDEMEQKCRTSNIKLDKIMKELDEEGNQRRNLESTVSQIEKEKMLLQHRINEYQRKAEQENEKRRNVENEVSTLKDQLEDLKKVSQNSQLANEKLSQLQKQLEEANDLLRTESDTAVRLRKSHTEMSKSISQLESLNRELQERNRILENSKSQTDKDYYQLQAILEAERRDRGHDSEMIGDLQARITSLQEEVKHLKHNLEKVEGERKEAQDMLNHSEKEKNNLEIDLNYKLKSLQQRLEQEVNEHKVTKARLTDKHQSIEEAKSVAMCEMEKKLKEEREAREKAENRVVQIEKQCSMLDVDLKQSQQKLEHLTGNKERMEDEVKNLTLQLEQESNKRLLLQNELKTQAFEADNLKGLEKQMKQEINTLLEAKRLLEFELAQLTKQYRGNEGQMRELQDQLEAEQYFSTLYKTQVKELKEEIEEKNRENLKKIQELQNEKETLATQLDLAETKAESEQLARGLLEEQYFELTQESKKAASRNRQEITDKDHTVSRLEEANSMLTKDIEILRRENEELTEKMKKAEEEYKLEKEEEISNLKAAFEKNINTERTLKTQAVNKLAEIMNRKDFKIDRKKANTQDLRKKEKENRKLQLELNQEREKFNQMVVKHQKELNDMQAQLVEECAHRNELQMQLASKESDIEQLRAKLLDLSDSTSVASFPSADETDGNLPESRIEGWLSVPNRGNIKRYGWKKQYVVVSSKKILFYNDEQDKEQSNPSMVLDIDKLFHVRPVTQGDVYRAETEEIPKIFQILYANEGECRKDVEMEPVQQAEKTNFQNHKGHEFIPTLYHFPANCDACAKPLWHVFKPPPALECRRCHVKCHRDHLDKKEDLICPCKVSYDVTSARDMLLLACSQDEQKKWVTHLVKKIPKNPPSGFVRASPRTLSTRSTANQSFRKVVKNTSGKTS
SMILES,pKi (Rho kinase 1),pKi (Rho kinase 2)
"CC1=C(C(=O)Nc2cc3cn[nH]c3cc2F)C(c2ccc(C(F)(F)F)c(F)c2)n2nnnc2N1 (single isomer, unassigned) [Example 40B, N-(6-fluoro-1H-indazol-5-yl)-7-(3-fluoro-4-(trifluoromethyl)phenyl)-5-methyl-4,7-dihydrotetrazolo[1,5-a]pyrimidine-6-carboxamide]",6.30 to 7.30,6.30 to 7.30
"CCOC(=O)c1cc2n(n1)C(c1ccc(F)cc1)C(C(=O)Nc1ccc3[nH]ncc3c1)=C(C)N2 (single isomer, unassigned) [Example 4A, ethyl 6-((1H-indazol-5-yl)carbamoyl)-7-(4-fluorophenyl)-5-methyl-4,7-dihydropyrazolo[1,5-a]pyrimidine-2-carboxylate]",< 6.30,< 6.30
"CC1=C(C(=O)Nc2ccc3[nH]ncc3c2)C(c2ccc(F)cc2)n2nc(CO)cc2N1 (single isomer, unassigned) [Example 71A, 7-(4-fluorophenyl)-2-(hydroxymethyl)-N-(1H-indazol-5-yl)-5-methyl-4,7-dihydropyrazolo[1,5-a]pyrimidine-6-carboxamide]",> 7.30,> 7.30
"CC1=C(C(=O)Nc2ccc3cnccc3c2)C(c2ccc(C(F)(F)F)c(F)c2)n2nc(C(=O)N(C)CCN3CCCCC3)cc2N1 (single isomer, unassigned) [Example 78B, 7-(3-fluoro-4-(trifluoromethyl)phenyl)-N6-(isoquinolin-6-yl)-N2,5-dimethyl-N2-(2-(piperidin-1-yl)ethyl)-4,7-dihydropyrazolo[1,5-a]pyrimidine-2,6-dicarboxamide]",> 7.30,> 7.30
"CC1=C(C(=O)Nc2ccc3cnccc3c2)C(c2ccc(C(F)(F)F)c(F)c2)n2nc(NC(=O)CCN3CCCCC3)cc2N1 (stereo not shown) [Example 131, 7-(3-Fluoro-4-(trifluoromethyl)phenyl)-N-(isoquinolin-6-yl)-5-methyl-2-(3-(piperidin-1-yl)propanamido)-4,7-dihydropyrazolo[1,5-a]pyrimidine-6-carboxamide]",> 7.30,> 7.30
"CCOC(=O)c1cc2n(n1)C(C1CCOCC1)C(C(=O)Nc1ccc3[nH]ncc3c1)=C(C)N2 (stereo not shown) [Example 11, ethyl 6-((1H-indazol-5-yl)carbamoyl)-5-methyl-7-(tetrahydro-2H-pyran-4-yl)-4,7-dihydropyrazolo[1,5-a]pyrimidine-2-carboxylate]",6.30 to 7.30,6.30 to 7.30
"CC1=C(C(=O)Nc2ccc3cnccc3c2)C(c2ccc(C(F)(F)F)c(F)c2)n2nc(NC(=O)CCN3CCCCC3)cc2N1 (single isomer, unassigned) [131A]",> 7.30,> 7.30
"CCOC(=O)c1cc2n(n1)C(c1ccc(C(F)(F)F)c(F)c1)C(C(=O)Nc1cc3ccncc3s1)=C(C)N2 (stereo not shown) [Example 42, ethyl 7-(3-fluoro-4-(trifluoromethyl)phenyl)-5-methyl-6-(thieno[2,3-c]pyridin-2-ylcarbamoyl)-4,7-dihydropyrazolo[1,5-a]pyrimidine-2-carboxylate]",> 7.30,> 7.30
"CC1=C(C(=O)Nc2cc3cn[nH]c3cc2F)C(c2ccc(Cl)nc2)n2nc(C(F)(F)F)cc2N1 (stereo not shown) [Example 39, 7-(6-chloropyridin-3-yl)-N-(6-fluoro-1H-indazol-5-yl)-5-methyl-2-(trifluoromethyl)-4,7-dihydropyrazolo[1,5-a]pyrimidine-6-carboxamide]",> 7.30,> 7.30
"CC1=C(C(=O)Nc2ccc3cnccc3c2)C(c2ccc(C(F)(F)F)c(F)c2)n2nc(C3CCN(C(=O)CCN4CCCCC4)CC3)cc2N1 (stereo not shown) [Example 135, 7-(3-fluoro-4-(trifluoromethyl)phenyl)-N-(isoquinolin-6-yl)-5-methyl-2-(1-(3-(piperidin-1-yl)propanoyl)piperidin-4-yl)-4,7-dihydropyrazolo[1,5-a]pyrimidine-6-carboxamide]",> 7.30,> 7.30
"CC1=C(C(=O)Nc2ccc3cnccc3c2)C(c2cccc(C(F)(F)F)c2)n2nc(CO)cc2N1 (stereo not shown) [Example 51, 2-(hydroxymethyl)-N-(isoquinolin-6-yl)-5-methyl-7-(3-(trifluoromethyl)phenyl)-4,7-dihydropyrazolo[1,5-a]pyrimidine-6-carboxamide]",> 7.30,> 7.30
"CCOC(=O)c1cc2n(n1)C(CC(C)C)C(C(=O)Nc1ccc3[nH]ncc3c1)=C(C)N2 (stereo not shown) [Example 13, ethyl 6-((1H-indazol-5-yl)carbamoyl)-7-isobutyl-5-methyl-4,7-dihydropyrazolo[1,5-a]pyrimidine-2-carboxylate]",6.30 to 7.30,6.30 to 7.30
"CC1=C(C(=O)Nc2ccc3cnccc3c2)C(C2COc3ccccc3O2)n2nc(CO)cc2N1 (single isomer, unassigned) [Example 72A, 7-(2,3-dihydrobenzo[b][1,4]dioxin-2-yl)-2-(hydroxymethyl)-N-(isoquinolin-6-yl)-5-methyl-4,7-dihydropyrazolo[1,5-a]pyrimidine-6-carboxamide]",> 7.30,> 7.30
"CCOC(=O)c1cc2n(n1)C(c1nc3ccccc3s1)C(C(=O)Nc1ccc3cnccc3c1)=C(C)N2 (stereo not shown) [Example 8, ethyl 7-(benzo[d]thiazol-2-yl)-6-(isoquinolin-6-ylcarbamoyl)-5-methyl-4,7-dihydropyrazolo[1,5-a]pyrimidine-2-carboxylate]",> 7.30,> 7.30
"CC1=C(C(=O)Nc2ccc3cnccc3c2)C(c2ccc(C(F)(F)F)c(F)c2)n2nc(CN3CCN(C)CC3)cc2N1 (single isomer, unassigned) [Example 96A, 7-(3-fluoro-4-(trifluoromethyl)phenyl)-N-(isoquinolin-6-yl)-5-methyl-2-((4-methylpiperazin-1-yl)methyl)-4,7-dihydropyrazolo[1,5-a]pyrimidine-6-carboxamide]",6.30 to 7.30,6.30 to 7.30
"CC1=C(C(=O)Nc2ccc3cnccc3c2)C(c2ccc(Cl)cc2F)n2nc(CO)cc2N1 (stereo not shown) [Example 64, 7-(4-chloro-2-fluorophenyl)-2-(hydroxymethyl)-N-(isoquinolin-6-yl)-5-methyl-4,7-dihydropyrazolo[1,5-a]pyrimidine-6-carboxamide]",> 7.30,> 7.30
"COCc1cc2n(n1)C(c1ccc3cc[nH]c3c1)C(C(=O)Nc1ccc3cnccc3c1)=C(C)N2 (stereo not shown) [Example 38, 7-(1H-indol-6-yl)-N-(isoquinolin-6-yl)-2-(methoxymethyl)-5-methyl-4,7-dihydropyrazolo[1,5-a]pyrimidine-6-carboxamide]",> 7.30,> 7.30
"CCOC(=O)c1cc2n(n1)C(c1ccc(O)c(F)c1)C(C(=O)Nc1ccc3cnccc3c1)=C(C)N2 (stereo not shown) [Example 10, ethyl 7-(3-fluoro-4-hydroxyphenyl)-6-(isoquinolin-6-ylcarbamoyl)-5-methyl-4,7-dihydropyrazolo[1,5-a]pyrimidine-2-carboxylate]",> 7.30,> 7.30
"CC1=C(C(=O)Nc2ccc3[nH]ncc3c2)C(c2ccc(C(F)(F)F)cc2)n2nnnc2N1 (single isomer, unassigned) [Example 27B, N-(1H-indazol-5-yl)-5-methyl-7-(4-(trifluoromethyl)phenyl)-4,7-dihydrotetrazolo[1,5-a]pyrimidine-6-carboxamide]",6.30 to 7.30,6.30 to 7.30
"CC1=C(C(=O)Nc2ccc3[nH]ncc3c2)C(c2ccc(Cl)cc2)n2nnnc2N1 (single isomer, unassigned) [Example 24A, 7-(4-chlorophenyl)-N-(1H-indazol-5-yl)-5-methyl-4,7-dihydrotetrazolo[1,5-a]pyrimidine-6-carboxamide]",> 7.30,> 7.30
"CC1=C(C(=O)Nc2ccc3cnccc3c2)C(c2ccc(C(F)(F)F)c(F)c2F)n2nc(CN(C)C)cc2N1 (single isomer, unassigned) [Example 122a, 7-(2,3-difluoro-4-(trifluoromethyl)phenyl)-2-((dimethylamino)methyl)-N-(isoquinolin-6-yl)-5-methyl-4,7-dihydropyrazolo[1,5-a]pyrimidine-6-carboxamide]",< 6.30,< 6.30
"CC1=C(C(=O)Nc2ccc3cnccc3c2)C(c2ccc(C(C)(C)C)cc2)n2nc(CO)cc2N1 (stereo not shown) [Example 54, 7-(4-(tert-butyl)phenyl)-2-(hydroxymethyl)-N-(isoquinolin-6-yl)-5-methyl-4,7-dihydropyrazolo[1,5-a]pyrimidine-6-carboxamide]",6.30 to 7.30,> 7.30
"CC1=C(C(=O)Nc2ccc3cnccc3c2)C(c2ccc(C(F)(F)F)c(F)c2)n2nc(C(=O)NCCN3CCCCC3)cc2N1 (single isomer, unassigned) [77B]",> 7.30,> 7.30
"CC1=C(C(=O)Nc2ccc3[nH]ncc3c2)C(C2CCN(C)CC2)n2nc(C(F)(F)F)cc2N1 (stereo not shown) [Example 33, N-(1H-indazol-5-yl)-5-methyl-7-(1-methylpiperidin-4-yl)-2-(trifluoromethyl)-4,7-dihydropyrazolo[1,5-a]pyrimidine-6-carboxamide]",< 6.30,< 6.30
"CCOC(=O)c1cc2n(n1)C(c1ccc(C(F)(F)F)c(F)c1)C(C(=O)Nc1ccc3cncc(C)c3c1)=C(C)N2 (stereo not shown) [Example 114, ethyl 7-(3-fluoro-4-(trifluoromethyl)phenyl)-5-methyl-6-((4-methylisoquinolin-6-yl)carbamoyl)-4,7-dihydropyrazolo[1,5-a]pyrimidine-2-carboxylate]",> 7.30,> 7.30
"CC1=C(C(=O)Nc2ccc3cnccc3c2)C(c2ccc(C(F)(F)F)cc2)n2nc(CO)cc2N1 (single isomer, unassigned) [Example 43A, 2-(hydroxymethyl)-N-(isoquinolin-6-yl)-5-methyl-7-(4-(trifluoromethyl)phenyl)-4,7-dihydropyrazolo[1,5-a]pyrimidine-6-carboxamide]",< 6.30,6.30 to 7.30
